Laboratory results as given in ChEMBL document CHEMBL4665701, “Discovery and Characterization of Clinical Candidate LXE408 as a Kinetoplastid-Selective Proteasome Inhibitor for the Treatment of Leishmaniases” (J Med Chem, 2020).
Each block holds one compound with its values, some of them ahead of it. Calls of active or inactive are those of the source. The calls are words filed in the database; no cut-off is given here.

Legend:
[1] = Drug level in rat hepatocytes assessed as compound abundance level at 10 uM incubated for 4 hrs by UV chromatography; type: ADME, cell-based, Hepatocyte
[2] = Drug level in dog hepatocytes assessed as compound abundance level at 10 uM incubated for 4 hrs by UV chromatography; type: ADME, cell-based, Canis lupus familiaris, Hepatocyte
[3] = Drug level in monkey hepatocytes assessed as compound abundance level at 10 uM incubated for 4 hrs by UV chromatography; type: ADME, cell-based, Macaca mulatta, Hepatocyte; details: rhesus monkey
[4] = Drug level in human hepatocytes assessed as compound abundance level at 10 uM incubated for 4 hrs by UV chromatography; type: ADME, cell-based, Hepatocyte
[5] = system: Leishmania donovani; test: Antiparasitic activity against Leishmania donovani MHOM/ET/67/HU3 (ATCC) infected in primary BALB/c mouse peritoneal macrophages assessed as reduction in parasite proliferation incubated for 120 hrs by SYBR Green I staining based assay; type: functional, organism-based; details: Macrophage
[6] = system: Leishmania tarentolae; test: Noncompetitive inhibition of chymotrypsin-like activity of Leishmania tarentolae proteasome beta 5 using fluorogenic peptide Suc-LLVY-[Rh110]-[Dpro] as substrate
[7] = in vitro; details: mouse, liver microsomes
[8] = in vitro; details: rat, liver microsomes
[9] = in vitro; details: rat, liver microsomes; remark: listed apart in the source
[10] = system: Leishmania tarentolae; test: Inhibition of chymotrypsin-like activity of Leishmania tarentolae proteasome beta 4 F24L mutant
[11] = system: Leishmania tarentolae; test: Inhibition of chymotrypsin-like activity of Leishmania tarentolae proteasome beta 4
[12] = Drug level in mouse hepatocytes assessed as compound abundance level at 10 uM incubated for 4 hrs by UV chromatography; type: ADME, cell-based, Hepatocyte
[13] = Drug uptake in beagle dog at 10 mg/kg, po measured up to 24 hrs relative to LXE408; type: ADME, organism-based, Canis lupus familiaris; details: in vivo
[14] = system: Leishmania donovani; test: Antiparasitic activity against Leishmania donovani MHOM/ET/67/HU3 (ATCC) infected in BALB/c mouse model of visceral leishmaniasis assessed as reduction in parasite burden in liver at 12 mg/kg, po QD for 8 days by qPCR analysis relative to control; type: functional, organism-based; details: time 8.0 day
[15] = system: Leishmania donovani; test: Antiparasitic activity against Leishmania donovani MHOM/ET/67/HU3 (ATCC) infected in BALB/c mouse model of visceral leishmaniasis assessed as parasite burden in liver at 12 mg/kg, po QD for 8 days by qPCR analysis (reference value: 100%); type: functional; details: time 8 day
[16] = target: T1, Cytochrome P450 2J2 (Homo sapiens, UniProt P51589); test: Drug metabolism assessed as human CYP2j2-mediated N-(4-fluoro-3-(6-(3-methylpyri din-2-yl)-[1,2,4]triazolo[1,5- a]pyrimidin-2-yl)phenyl)-2-(hy droxymethyl)-4-methyloxazole-5 -carboxamide formation; type: ADME; details: recombinant enzyme
T1 sequence (P51589 whole entry): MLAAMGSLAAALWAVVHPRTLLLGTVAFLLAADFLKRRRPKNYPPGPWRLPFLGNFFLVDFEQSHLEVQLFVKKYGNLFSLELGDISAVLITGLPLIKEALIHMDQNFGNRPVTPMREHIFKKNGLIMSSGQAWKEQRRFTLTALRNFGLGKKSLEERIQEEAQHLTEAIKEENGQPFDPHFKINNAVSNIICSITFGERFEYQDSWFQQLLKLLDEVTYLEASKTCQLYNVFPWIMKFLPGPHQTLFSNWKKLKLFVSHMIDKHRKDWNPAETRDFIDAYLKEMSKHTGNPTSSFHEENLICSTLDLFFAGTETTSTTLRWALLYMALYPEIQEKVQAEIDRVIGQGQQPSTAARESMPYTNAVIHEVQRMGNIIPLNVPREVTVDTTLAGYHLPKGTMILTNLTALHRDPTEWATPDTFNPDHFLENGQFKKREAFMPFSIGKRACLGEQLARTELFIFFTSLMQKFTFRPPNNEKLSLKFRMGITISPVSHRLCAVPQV

[17] = target: T2, Cytochrome P450 1A2 (Homo sapiens, UniProt P05177); test: Drug metabolism assessed as human CYP1A2-mediated N-(4-fluoro-3-(6-(3-methylpyri din-2-yl)-[1,2,4]triazolo[1,5- a]pyrimidin-2-yl)phenyl)-2-(hy droxymethyl)-4-methyloxazole-5 -carboxamide formation; type: ADME; details: recombinant enzyme
T2 sequence (P05177 whole entry): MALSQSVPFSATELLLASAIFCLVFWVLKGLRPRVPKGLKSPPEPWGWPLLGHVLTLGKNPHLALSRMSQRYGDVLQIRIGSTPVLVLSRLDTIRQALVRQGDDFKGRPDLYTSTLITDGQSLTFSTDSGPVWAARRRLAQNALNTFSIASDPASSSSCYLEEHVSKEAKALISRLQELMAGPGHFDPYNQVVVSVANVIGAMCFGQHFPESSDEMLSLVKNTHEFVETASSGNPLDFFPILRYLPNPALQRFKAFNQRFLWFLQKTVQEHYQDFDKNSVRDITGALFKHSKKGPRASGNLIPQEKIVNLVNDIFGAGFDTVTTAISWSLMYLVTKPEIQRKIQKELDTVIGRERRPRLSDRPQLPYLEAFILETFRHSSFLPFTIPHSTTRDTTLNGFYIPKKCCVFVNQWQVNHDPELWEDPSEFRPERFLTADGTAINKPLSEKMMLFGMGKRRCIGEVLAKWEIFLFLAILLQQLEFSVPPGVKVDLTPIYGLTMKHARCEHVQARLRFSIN

[18] = target: T3, Cytochrome P450 1A1 (Homo sapiens, UniProt P04798); test: Drug metabolism assessed as human CYP1A1-mediated N-(4-fluoro-3-(6-(3-methylpyri din-2-yl)-[1,2,4]triazolo[1,5- a]pyrimidin-2-yl)phenyl)-2-(hy droxymethyl)-4-methyloxazole-5 -carboxamide formation; type: ADME; details: recombinant enzyme
T3 sequence (P04798 whole entry): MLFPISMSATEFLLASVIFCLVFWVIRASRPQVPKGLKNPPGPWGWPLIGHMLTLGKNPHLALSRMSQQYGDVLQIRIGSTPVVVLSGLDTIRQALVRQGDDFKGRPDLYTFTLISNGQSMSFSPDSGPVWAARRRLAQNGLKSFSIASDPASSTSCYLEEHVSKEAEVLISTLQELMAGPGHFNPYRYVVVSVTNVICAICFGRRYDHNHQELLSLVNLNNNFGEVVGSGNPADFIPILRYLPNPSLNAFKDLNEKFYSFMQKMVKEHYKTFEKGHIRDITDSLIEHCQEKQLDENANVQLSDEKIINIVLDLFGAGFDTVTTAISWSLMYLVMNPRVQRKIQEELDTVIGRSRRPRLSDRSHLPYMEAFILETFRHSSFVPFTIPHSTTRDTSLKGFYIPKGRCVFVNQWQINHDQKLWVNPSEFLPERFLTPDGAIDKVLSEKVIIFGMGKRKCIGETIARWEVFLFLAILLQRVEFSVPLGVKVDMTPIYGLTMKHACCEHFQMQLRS

[19] = target: T4, Cytochrome P450 2D15 (Canis lupus familiaris, UniProt Q29473); test: Drug metabolism assessed as dog CYP2D15-mediated N-(4-fluoro-3-(6-(3-methylpyri din-2-yl)-[1,2,4]triazolo[1,5- a]pyrimidin-2-yl)phenyl)-2-(hy droxymethyl)-4-methyloxazole-5 -carboxamide formation; type: ADME; details: recombinant enzyme
T4 sequence (Q29473 whole entry): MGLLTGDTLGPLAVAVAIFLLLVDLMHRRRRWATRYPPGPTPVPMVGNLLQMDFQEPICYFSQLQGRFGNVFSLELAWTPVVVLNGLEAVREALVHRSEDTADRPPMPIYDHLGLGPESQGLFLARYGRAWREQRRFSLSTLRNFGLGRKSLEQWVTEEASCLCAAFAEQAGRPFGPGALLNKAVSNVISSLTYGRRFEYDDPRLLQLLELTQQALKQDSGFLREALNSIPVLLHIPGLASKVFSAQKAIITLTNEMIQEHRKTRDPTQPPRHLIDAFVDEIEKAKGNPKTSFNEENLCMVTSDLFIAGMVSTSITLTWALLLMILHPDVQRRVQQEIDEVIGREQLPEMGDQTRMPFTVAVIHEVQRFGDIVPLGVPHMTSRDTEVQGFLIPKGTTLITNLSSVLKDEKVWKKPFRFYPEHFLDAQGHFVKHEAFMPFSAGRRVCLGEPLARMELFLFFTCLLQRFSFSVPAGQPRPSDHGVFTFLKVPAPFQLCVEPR

[20] = target: Cytochrome P450 3A4 (Homo sapiens, UniProt P08684); test: Drug metabolism assessed as human CYP3A4-mediated N-(4-fluoro-3-(6-(3-methylpyri din-2-yl)-[1,2,4]triazolo[1,5- a]pyrimidin-2-yl)phenyl)-2-(hy droxymethyl)-4-methyloxazole-5 -carboxamide formation; type: ADME; details: recombinant enzyme
[21] = Toxicity in rat by vivo micronucleus test
[22] = Genotoxicity in Salmonella typhimurium by Ames test; type: toxicity; details: salmonella enterica subsp. enterica serovar typhimurium
[23] = system: Leishmania major; test: Antiparasitic activity against Leishmania major MHOM/IR/-/173 promastigotes infected in BALB/c mouse model of cutaneous leishmaniasis assessed as healing of parasite-induced skin lesions at 20 mg/kg, po BID for 10 days; type: functional, organism-based; details: time 10.0 day
[24] = system: Leishmania donovani; test: Antiparasitic activity against Leishmania donovani MHOM/ET/67/HU3 (ATCC) infected in BALB/c mouse model of visceral leishmaniasis assessed as parasite burden in liver at 0.3 mg/kg, po BID for 8 days by qPCR analysis (reference value: 100%); type: functional; details: time 8 day
[25] = system: Leishmania donovani; test: Antiparasitic activity against Leishmania donovani MHOM/ET/67/HU3 (ATCC) infected in BALB/c mouse model of visceral leishmaniasis assessed as parasite burden in liver at 1 mg/kg, po BID for 8 days by qPCR analysis (reference value: 100%); type: functional; details: time 8 day
[26] = system: Leishmania donovani; test: Antiparasitic activity against Leishmania donovani MHOM/ET/67/HU3 (ATCC) infected in BALB/c mouse model of visceral leishmaniasis assessed as parasite burden in liver at 3 mg/kg, po BID for 8 days by qPCR analysis (reference value: 100%); type: functional; details: time 8 day
[27] = system: Leishmania donovani; test: Antiparasitic activity against Leishmania donovani MHOM/ET/67/HU3 (ATCC) infected in BALB/c mouse model of visceral leishmaniasis assessed as parasite burden in liver at 10 mg/kg, po BID for 8 days by qPCR analysis (reference value: 100%); type: functional; details: time 8 day
[28] = Drug concentration in plasma of Leishmania donovani MHOM/ET/67/HU3 (ATCC) infected BALB/c mouse model of visceral leishmaniasis at 0.3 to 10 mg/kg, po BID for 8 days; type: ADME, organism-based; details: in vivo, 192 h, dose 0.3-10 mg/kg, time 8 day
[29] = Inhibition of chymotrypsin-like activity of Leishmania tarentolae proteasome beta 5 Y113F mutant
[30] = in vitro; details: rat, liver microsomes; remark: listed apart in the source

Chain of Cytochrome P450 3A4 (P08684 whole entry): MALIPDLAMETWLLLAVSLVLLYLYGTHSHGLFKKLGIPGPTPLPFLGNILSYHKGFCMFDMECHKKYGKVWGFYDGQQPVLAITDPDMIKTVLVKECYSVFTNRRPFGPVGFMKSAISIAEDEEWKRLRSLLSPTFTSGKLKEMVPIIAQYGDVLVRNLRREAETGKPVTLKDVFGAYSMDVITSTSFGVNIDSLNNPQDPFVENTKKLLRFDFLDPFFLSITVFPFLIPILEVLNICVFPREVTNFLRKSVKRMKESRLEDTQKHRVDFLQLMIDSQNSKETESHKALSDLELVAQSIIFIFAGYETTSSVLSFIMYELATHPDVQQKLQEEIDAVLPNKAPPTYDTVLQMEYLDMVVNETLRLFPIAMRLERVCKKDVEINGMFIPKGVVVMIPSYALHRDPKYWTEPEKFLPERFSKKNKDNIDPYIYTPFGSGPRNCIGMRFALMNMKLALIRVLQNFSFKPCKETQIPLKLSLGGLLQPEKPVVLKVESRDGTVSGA

Structure (SMILES): Cc1cccnc1-c1cnc2nc(-c3cc(NC(=O)c4oc(CO)nc4C)ccc3F)nn2c1
Drug uptake [1]: <= 25%
Drug uptake [2]: 25%
Drug uptake [3]: <= 25%
Drug uptake [4]: <= 25%
EC50 [5]: > 5 µM

Structure (SMILES): Cc1nc(C)c(C(=O)Nc2ccc(F)c(-c3nc4ncc(-c5ccccn5)cn4n3)c2)o1
inhibition [6]: Active

Structure (SMILES): Cc1nc(C)c(C(=O)Nc2ccc(F)c(-c3nc4ncc(-c5ncccc5Cl)cn4n3)c2)o1
hepatic extraction ratio at 1 h [7]: < 0.21
hepatic extraction ratio at 1 h [8]: < 0.21
hepatic extraction ratio at 1 h [9]: 0.21

Structure (SMILES): CC(C)C[C@H](NC(=O)[C@H](Cc1ccccc1)NC(=O)c1cnccn1)B(O)O
inhibition [10]: Active
inhibition [11]: Active

Structure (SMILES): CCCCCCCCCCCCCCCCOP(=O)([O-])OCC[N+](C)(C)C [MILTEFOSINE]
Activity [14]: Active
Activity [15]: 4.2%

Structure (SMILES): Cc1nc(C)c(C(=O)Nc2ccc(F)c(-c3nc4ncc(-c5ncccc5C)cn4n3)c2)o1 [LXE-408]
Drug metabolism [16]: Metabolite_Detected
Drug metabolism [17]: Metabolite_Detected
Drug metabolism [18]: Metabolite_Detected
Drug uptake [12]: > 75%
Drug uptake [1]: > 75%
Drug uptake [2]: > 75%
Drug uptake [3]: > 75%
Drug uptake [4]: > 75%
Drug metabolism [19]: Metabolite_Detected
Drug metabolism [20]: Metabolite_Detected
Activity [21]: Non-Toxic
Activity [22]: Non-Toxic
Activity [23]: Active
Activity [24]: 85%
Activity [25]: 5.1%
Activity [26]: <0.2%
Activity [27]: <0.16%
Drug uptake [28]: Dose-dependent effect
inhibition [29]: inactive

Structure (SMILES): Cc1nc(C)c(C(=O)Nc2ccc(F)c(-c3nc4ncc(-c5ncccc5C(F)F)cn4n3)c2)o1
hepatic extraction ratio at 1 h [30]: < 0.18

Second part, led by results:

Drug uptake [12]: <= 25%
Drug uptake [1]: <= 25%
Drug uptake [2]: <= 25%
Drug uptake [3]: <= 25%
Drug uptake [4]: <= 25%
Drug uptake [13]: 9.1%
Structure (SMILES): Cc1nc(C)c(C(=O)Nc2ccc(F)c(-c3nc4ncc(-c5ncccc5CO)cn4n3)c2)o1

Drug uptake [12]: <= 25%
Drug uptake [1]: <= 25%
Drug uptake [2]: <= 25%
Drug uptake [3]: <= 25%
Drug uptake [4]: <= 25%
Drug uptake [13]: 2.3%
Structure (SMILES): Cc1nc(CO)c(C(=O)Nc2ccc(F)c(-c3nc4ncc(-c5ncccc5C)cn4n3)c2)o1
EC50 [5]: > 5 µM

hepatic extraction ratio at 1 h [9]: < 0.21
Structure (SMILES): COc1cccnc1-c1cnc2nc(-c3cc(NC(=O)c4oc(C)nc4C)ccc3F)nn2c1
